{"source": "patent US7276248B2", "about": "“Conjugate having a cleavable linkage for use in a liposome” (ALZA Corporation, priority 1999, dated 2007)", "key": {"[1]": {"test_system": "M109 cells, a mouse lung carcinoma line", "assay": "In vitro cytotoxicity / growth rate of M109 cells, methylene blue staining, 72 hour continuous exposure", "type": "cell-based", "settings": "read-out: IC50 Values for M109 tumor cells after 72 hour culture with continuous exposure to formulation", "procedure": "IC50 values were taken as the drug concentration which caused a 50% inhibition of the control growth rate (IC50), as described in Example 6.\nUpon completion of the assay, the cells were fixed and evaluated using the methylene blue staining assay.\nIn the assay, 1500 M109 mouse carcinoma cells from exponentially growing cultures in 200 μl aliquots (RPMI-1640 medium+10% fetal bovine serum) were plated onto 96 well flat-bottom microtiter plates. […] For each 10-fold increase in drug concentration, four drug concentration points were tested. Each test was performed in triplicate wells and in two parallel plates. The cells were treated continuously for 72 hours.\nAfter the 72 hour treatment period, the cultures were fixed by the addition of 50 μl 2.5% glutaraldehyde to each well for 10 minutes. […] The dye was extracted with 200 μl 0.1 N HCl for 60 minutes at 37° C. and the optical density was determined using a microplate spectrophotometer.\nThe cell number determined by counting cells with a hemocytometer correlated well with the spectrophotometric absorbance. The initial cell plating density was chosen to ensure a linear relationship between cell number and absorbance at the end of the study. In each study, six wells were fixed before drug was added to determine the initial average absorbance. […]\nThe growth rate was calculated as GR=(ln 2/DT). […]"}, "[2]": {"assay": "In vivo pharmacokinetics in rats after single bolus intravenous injection", "settings": "time points greater than about 5 minutes", "procedure": "The in vivo pharmacokinetics of the liposomes containing cholesterol and the cholesterol-free liposome formulation was determined in rats.\nEight rats were randomized into treatment groups as follows:\nA single intravenous injection of the test formulation was administered as a bolus dose. Blood samples were taken from each animal at the following times after injection: 30 seconds, 15 minutes, 30 minutes, 1 hour, 2 hours, 4 hours, 8 hours, 24 hours, 48 hours, 72 hours and 96 hours. […] A 200 mM iodoacetamine solution was prepared by placing 199.3 mg of iodoacetamide in 5.1 mL of 7.5% EDTA. 15 μL of the 200 mM iodoacetamide solution was placed in each 1 μL of blood sample.\nThe final volume was adjusted to 1 mL with methanol. […] The samples were spun down at 3,000 rpm for 10 minutes at room temperature. 300 μL of supernatant was transferred to HPLC vials containing 300 μL insert for injection.\n100 μL of plasma sample was denatured with 900 μL of methanol followed by centrifugation for 10 minutes at 3,000 rpm. […]\nPeak area and retention times were determined by the PE-Nelson Turbochrom (Version 4.1) system. […] The linearity of the method was evaluated suing standard responses from six concentration levels. […] The precision and accuracy of the method were evaluated from the back-calculated concentrations of the standards as well as from the quality control samples."}}, "note": "Where two headings read alike, the source gives them in different places.", "data": [{"smiles": "CO[C@@]12[C@H](COC(N)=O)C3=C(C(=O)C(C)=C(N)C3=O)N1C[C@@H]1N[C@@H]12", "note": "[free MMC, mitomycin C]", "values": [{"measurement": "IC50", "setting": "[1]; Cysteine Concentration 0", "value": "285 ± 92", "unit": "nM"}, {"measurement": "IC50", "setting": "[1]; Cysteine Concentration 1000 μM", "value": "300 ± 71", "unit": "nM"}, {"measurement": "dose remaining in the blood", "setting": "[2]", "value": "Virtually none"}]}]}
